The text below walks through data of ChEMBL document CHEMBL1142843, “Synthesis and evaluation of a series of tropane analogues as novel vesicular monoamine transporter-2 ligands” (Bioorg Med Chem Lett, 2005).

For experiment [1], the target named is T1, Synaptic vesicular amine transporter (Rattus norvegicus, UniProt Q01827). The experiment can be described thus: Inhibition constant against [3H]dihydrotetrabenazine binding to vesicular monoamine transporter-2 of rat synaptic vesicle membranes.
Experiment [2] has as its target Neuronal acetylcholine receptor alpha4beta2 (Rattus norvegicus). Put plainly: Inhibition constant against [3H]nicotine binding to alpha4beta2 nicotinic acetylcholine receptor of rat brain membranes.
Experiment [3] addresses Neuronal acetylcholine receptor alpha7 (Rattus norvegicus). The experiment can be described thus: Inhibition constant against [3H]methyllycaconitine binding to alpha7 nicotinic acetylcholine receptor of rat brain membranes.
The target of experiment [4] is T1, Synaptic vesicular amine transporter. Put plainly: Inhibition constant against [3H]nicotine binding to vesicular monoamine transporter-2 of rat brain membranes.
Experiment [5] shares this target. Put plainly: Inhibition constant against [3H]methyllycaconitine binding to vesicular monoamine transporter-2 of rat brain membranes.

T1 sequence (Q01827 whole entry): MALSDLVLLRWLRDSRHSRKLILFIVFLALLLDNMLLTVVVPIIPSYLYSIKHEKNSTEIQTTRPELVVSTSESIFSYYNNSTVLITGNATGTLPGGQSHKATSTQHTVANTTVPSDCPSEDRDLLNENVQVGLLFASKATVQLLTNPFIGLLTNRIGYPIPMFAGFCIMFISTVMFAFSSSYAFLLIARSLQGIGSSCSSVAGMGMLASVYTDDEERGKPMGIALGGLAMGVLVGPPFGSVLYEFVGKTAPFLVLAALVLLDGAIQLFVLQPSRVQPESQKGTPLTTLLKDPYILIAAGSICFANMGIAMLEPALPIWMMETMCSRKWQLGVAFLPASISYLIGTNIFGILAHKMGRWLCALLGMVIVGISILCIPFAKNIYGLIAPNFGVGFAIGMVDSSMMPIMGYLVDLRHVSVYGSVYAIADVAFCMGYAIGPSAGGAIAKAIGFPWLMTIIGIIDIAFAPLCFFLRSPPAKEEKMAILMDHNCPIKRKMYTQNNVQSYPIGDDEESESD

Regarding `COc1ccc(C[C@@H]2C[C@H](Cc3ccc(OC)cc3)C3CCC2N3C)cc1`, the inhibition constant (Ki) in experiment [1] was 3.88 µM; in experiment [2], over 100 µM; in experiment [3], over 100 µM.

On to `CN1C2CCC1[C@@H](Cc1ccc(F)cc1)C[C@H]2Cc1ccc(F)cc1`, for which the inhibitory constant (Ki) in experiment [1], in experiment [2] and in experiment [3] was over 100 µM throughout.

As to `CN1C2CCC1[C@@H](Cc1ccccc1)C(=O)[C@H]2Cc1ccccc1`, the inhibition constant Ki in experiment [1], in experiment [2] and in experiment [3] was over 100 µM each time.

As for `CN1C2CC=C(Cc3ccccc3)C1CC2` (stereo not drawn), the results for the Ki in experiment [1], in experiment [2] and in experiment [3] were over 100 µM, 1.84 µM and 15.2 µM, respectively.

Turning to `CN1C2CCC1[C@H](Cc1ccccc1)CC2` (stereo partly drawn), the Ki in experiment [1] is over 100 µM; in experiment [2], over 6.57 µM; in experiment [3], 14 µM.

With `CN1C2CCC1[C@@H](Cc1ccc(F)cc1)C=C2Cc1ccc(F)cc1` (stereo partly drawn), the Ki is 1.38 µM in experiment [1], over 100 µM in experiment [2] and over 100 µM in experiment [3].

In the case of `CN1C2CCC1[C@@H](CCCc1ccccc1)C[C@H]2CCCc1ccccc1`, the Ki is 3.95 µM in experiment [1], over 100 µM in experiment [2] and over 100 µM in experiment [3].

As for `COc1ccc(CC2=C[C@H](Cc3ccc(OC)cc3)C3CCC2N3C)cc1` (stereo partly drawn), the Ki is 4.8 µM in experiment [1], over 100 µM in experiment [2] and over 100 µM in experiment [3].

With `CN1C2CCC1[C@@H](Cc1ccccc1)C[C@H]2Cc1ccccc1`, the inhibition constant Ki in experiment [1], in experiment [2] and in experiment [3] was over 100 µM throughout.

`CN1C2CCC1[C@@H](Cc1ccccc1)C(O)[C@H]2Cc1ccccc1` (stereo in doubt; 7a): the inhibition constant (Ki) in experiment [1], in experiment [2] and in experiment [3] was over 100 µM each time.

As to `CN1C2CCC1[C@@H](Cc1ccccc1)C(O)[C@H]2Cc1ccccc1` (stereo in doubt; 7b), the inhibition constant (Ki) in experiment [4], in experiment [1] and in experiment [5] was over 100 µM each time.
